Source: US20110130427A1, “PESTICIDAL COMPOSITION” (ISHIHARA SANGYO KAISHA, LTD., priority 2008, published 2011)

Columns and labels:
[1] = system: serpentine leaf miner (Liriomyza trifolii); test: Test Example 1: controlling effects against serpentine leaf miner, Example 1 dilution with polyoxyethylene alkyl ether phosphoric acid ester; format: in vivo
Experimental: (§1) The above components are mixed, and the obtained solution is diluted 2,000 times or 4,000 times with water containing a polyoxyethylene alkyl ether phosphoric acid ester, followed by spraying (active ingredient concentration: 25 ppm or 12.5 ppm).
Kidney bean planted in a pot having a diameter of 7 cm was put in a breeding case wherein adults of serpentine leaf miner (Liriomyza trifolii) were released and permitted to lay eggs for 2 days. Thereafter, the test plant was taken out and left for 1 day, and then, a water-diluted liquid containing 100 ppm or 250 ppm of the polyoxyethylene alkyl ether phosphoric acid ester prepared in the above Example 1, was sprayed twice on each of the front and rear sides of the Kidney bean leaf by means of a hand spray. After drying in air, the Kidney bean was left to stand for 5 days in an illuminated constant temperature chamber at 25° C., whereupon the number of pupae on each leaf was counted, and the protective value was calculated by the following formula. The test was repeated twice. As the polyoxyethylene alkyl ether phosphoric acid ester, PHOSPHANOL RD-510Y, PHOSPHANOL RS-610 and PHOSPHANOL RS-710 (manufactured by Toho Chemical Industry Co., Ltd.) and ADEKA COL PS-440E (manufactured by ADEKA) were used.
(§2) For the purpose of comparison, a water-diluted liquid having no polyoxyethylene alkyl ether phosphoric acid ester added, was prepared, and spray treatment was carried out in the same manner.
(§3) Protective value (%)=(1−(the number of pupae at treated section/the number of pupae at untreated section))×100

[2] = system: serpentine leaf miner; test: Test Example 2: controlling effects against serpentine leaf miner, Example 1 dilution with polyoxyethylene arylether phosphoric acid ester; format: in vivo, Liriomyza trifolii
Experimental: as §1, §3
Kidney bean planted in a pot having a diameter of 7 cm was put in a breeding case wherein adults of serpentine leaf miner were released and permitted to lay eggs for 2 days. Thereafter, the test plant was taken out and left for 1 day, and then, a water-diluted liquid containing 50 ppm of a polyoxyethylene arylether phosphoric acid ester, prepared by replacing the polyoxyethylene alkyl ether phosphoric acid ester in the above Example 1 by a polyoxyethylene arylether phosphoric acid ester, was sprayed twice on each of the front and rear sides of the Kidney bean leaf by means of a hand spray. After drying in air, the Kidney bean was left to stand for 5 days in an illuminated constant temperature chamber at 25° C., whereupon the number of pupae on each leaf was counted, and the protective value was calculated in the same manner as in Test Example 1. The test was repeated twice. As the polyoxyethylene arylether phosphoric acid ester, and ADEKA COL CS-1361E (manufactured by ADEKA) was used.
For the purpose of comparison, a water-diluted liquid n having no polyoxyethylene arylether phosphoric acid ester added, was prepared, and spray treatment was carried out in the same manner.

[3] = system: serpentine leaf miner; test: Test Example 3: controlling effects against serpentine leaf miner, liquid composition of Example 4 diluted with water; format: in vivo, Liriomyza trifolii
Experimental: […] of Compound 1 and 20.0 g of a polyoxyalkylene phosphoric acid ester surfactant are dissolved in 74.7 g of N,N-dimethylacetamide to obtain 100 g of a transparent liquid composition containing 5 wt % of Compound 1.
as §3
Kidney bean planted in a pot having a diameter of 7 cm was put in a breeding case wherein adults of serpentine leaf miner were released and permitted to lay eggs for 2 days. Thereafter, the test plant was taken out and left for 2 days, the liquid composition obtained in accordance with the above Example 4 was diluted with water to prepare a test liquid containing 50 ppm or 100 ppm of the polyoxyalkylene phosphoric acid ester surfactant. Each test liquid was a suspension solution having fine particles uniformly dispersed. The suspension solution was sprayed twice on each of the front and rear sides of the Kidney bean leaf by means of a hand spray. After drying in air, the Kidney bean was left to stand for 5 days in an illuminated constant temperature chamber at 25° C., whereupon the number of pupae on each leaf was counted, and the protective value was calculated in the same manner as in Test Example 1. The test was repeated twice. As the polyoxyalkylene phosphoric acid ester surfactant, ADEKA COL PS-440E (manufactured by ADEKA) and PHOSPHANOL RS-610 (manufactured by Toho Chemical Industry, Co., Ltd.) as polyoxyethylene alkyl ether phosphoric acid esters, and ADEKA COL CS-1361E (manufactured by ADECA) as a polyoxyethylene arylether phosphoric acid ester were used.
as §2

Measured: Protective value (%)

CC(NC(=O)c1cc(Cl)cc(Br)c1NC(=O)c1cc(Br)nn1-c1ncccc1Cl)C1CC1 (stereo not drawn) [Compound 1, 3-Bromo-N-(2-bromo-4-chloro-6-(1-cyclopropylethylcarbamoyl)phenyl)-1-(3-chloropyridin-2-yl)-1H-pyrazole-5-carboxamide]
0%: [1]; Compound 1 12.5 ppm, no polyoxyethylene alkyl ether phosphoric acid ester (comparative section) | [1]; Compound 1 25 ppm, no polyoxyethylene alkyl ether phosphoric acid ester (comparative section) | [2]; Compound 1 12.5 ppm, no polyoxyethylene arylether phosphoric acid ester (comparative section) | [3]; Compound 1 12.5 ppm, no polyoxyalkylene phosphoric acid ester surfactant (comparative section)
77%: [3]; Compound 1 12.5 ppm + PS-440E 50 ppm (Example 4 composition), foliar spray on Kidney bean, pupae counted after 5 days
100%: [1]; Compound 1 12.5 ppm + PS-440E 100 ppm, foliar spray on Kidney bean, pupae counted after 5 days | [1]; Compound 1 12.5 ppm + PS-440E 250 ppm, foliar spray on Kidney bean, pupae counted after 5 days | [1]; Compound 1 12.5 ppm + RS-610 250 ppm, foliar spray on Kidney bean, pupae counted after 5 days | [1]; Compound 1 12.5 ppm + RS-710 250 ppm, foliar spray on Kidney bean, pupae counted after 5 days | [1]; Compound 1 25 ppm + PS-440E 100 ppm, foliar spray on Kidney bean, pupae counted after 5 days | [1]; Compound 1 25 ppm + PS-440E 250 ppm, foliar spray on Kidney bean, pupae counted after 5 days | [1]; Compound 1 25 ppm + RD-510Y 250 ppm, foliar spray on Kidney bean, pupae counted after 5 days | [1]; Compound 1 25 ppm + RS-610 250 ppm, foliar spray on Kidney bean, pupae counted after 5 days | [1]; Compound 1 25 ppm + RS-710 250 ppm, foliar spray on Kidney bean, pupae counted after 5 days | [2]; Compound 1 12.5 ppm + CS-1361E 50 ppm, foliar spray on Kidney bean, pupae counted after 5 days | [2]; Compound 1 25 ppm + CS-1361E 50 ppm, foliar spray on Kidney bean, pupae counted after 5 days | [3]; Compound 1 25 ppm + CS-1361E 100 ppm (Example 4 composition), foliar spray on Kidney bean, pupae counted after 5 days
46%: [3]; Compound 1 25 ppm, no polyoxyalkylene phosphoric acid ester surfactant (comparative section)
70%: [1]; Compound 1 12.5 ppm + RD-510Y 250 ppm, foliar spray on Kidney bean, pupae counted after 5 days
89%: [3]; Compound 1 12.5 ppm + RS-610 50 ppm (Example 4 composition), foliar spray on Kidney bean, pupae counted after 5 days
50%: [2]; Compound 1 25 ppm, no polyoxyethylene arylether phosphoric acid ester (comparative section)
